In article PMC13252604, “First Generation Proteolysis Targeting Chimeras (PROTACs) for the Treatment of Progeria” (Advanced Science, 2026):

Experiments:
Stability in mouse serum = assay type: in vitro ADME
From the text: TABLE 1 Pharmacokinetic parameters of PROTAC 2. | column: Stability (hours) ^b / m‐serum

[1] = tested on: Lmna^G609G/G609G fibroblasts; assay: Senescence-associated β-galactosidase activity in mouse progeroid cells; assay type: cell-based; details: 5 µM
Method: Confocal fluorescence microscopy images are representative of 2 independent experiments. […] Representative cropped immunoblots are shown. […] MW, molecular weight (in kDa) markers. (C) PROTAC 2 decreases senescence‐associated β‐galactosidase (SA‐βgal) activity, interleukin (IL) 1α and p16 senescent markers. Lmna^G609G/G609G (G609G) or Lmna^+/+ (WT) fibroblasts were incubated with vehicle or compound 2 (5 µM). […] Data were analysed using one‐way ANOVA followed by Dunnett's post–hoc test. ^*, p < 0.05; ^**, p < 0.01, ^***, p < 0.001, ^****, p < 0.0001 vs G609G cells. […]
TBS-T and proteins were visualized by quimioluminiscence (GE Healthcare […]
SA β-galactosidase activity was determined by the FDG method. […]
ferrocyanide, 0.6 mL 5 M NaCl, 0.2 mL 0.2 M MgCl2, (all from Sigma Aldrich) and 6.2 mL of deionized water in a total volume of 20 mL] in the dark in a humidified incubator at 37 °C for 24 h without CO2 supply. Then, an equal volume of the supernatant of each well was transferred to a new 96-well plate for fluorescence measurement. The resultant production of fluorescein was measured using a FluoStar Optima instrument (BMG Labtech) with an excitation of 485 nm and emission at 535 nm. […]
Total RNA was extracted by RNAeasy Mini Kit (Qiagen) according to the manufacturer instructions and subsequently quantified using the NanoPhotometer N60 (Implen). […]

Compound: CC1(C)Oc2cc3oc(=O)ccc3cc2C[C@@H]1OC(=O)CCCCCNc1cccc2c1C(=O)N(C1CCC(=O)NC1=O)C2=O (some centres unmarked) [compound 2]
- Stability (hours) m‐serum (Stability in mouse serum): 0.28 ± 0.02 h
- senescence‐associated β‐galactosidase (SA‐βgal) activity [1]: significantly reduced
